The structures appear in SMILES notation.

Common to all, as to type: ADME, organism-based
Data set [1] can be described thus: AUC (0 to 24 hrs) in HIV-infected patient at 100 mg, qd. Set-up: dose 100 mg, time < 24 hr. The note with it: human, plasma.
Data set [2] can be described thus: AUC (0 to 24 hrs) in HIV-infected patient at 100 mg, qd co-administered with 100 mg minocycline, bid for 15 days. Also on record: time < 24 hr, dose 100 mg. The note with it: human, plasma.
Data set [3] is described as follows: AUC (0 to 24 hrs) in HIV-infected patient at 100 mg, qd co-administered with 100 mg minocycline and 250 mg valporic acid, bid for 15 days. Set-up: dose 100 mg, time < 24 hr. The note with it: human, plasma.
The nature of data set [4]: Cmax in HIV-infected patient at 100 mg, qd. Also on record: dose 100 mg. To be noted: human, in vivo.
Data set [5] is described as follows: Cmax in HIV-infected patient at 100 mg, qd co-administered with 100 mg minocycline, bid for 15 days. To be noted: human, in vivo. Set-up: dose 100 mg.
Data set [6] in a line: Cmax in HIV-infected patient at 100 mg, qd co-administered with 100 mg minocycline and 250 mg valporic acid, bid for 15 days. Also on record: dose 100 mg. The note with it: human, in vivo.
Data set [7] in a line: Half life in HIV-infected patient at 100 mg, qd. To be noted: human, in vivo.
The nature of data set [8]: Half life in HIV-infected patient at 100 mg, qd co-administered with 100 mg minocycline, bid for 15 days. To be noted: human, in vivo.
Data set [9] can be described thus: Half life in HIV-infected patient at 100 mg, qd co-administered with 100 mg minocycline and 250 mg valporic acid, bid for 15 days. The note with it: human, in vivo.
The nature of data set [10]: AUC (0 to 24 hrs) in HIV-infected patient at 300 mg, qd. Also on record: time < 24 hr, dose 300 mg. The note with it: human, plasma.
A short description of data set [11]: AUC (0 to 24 hrs) in HIV-infected patient at 300 mg, qd co-administered with 100 mg minocycline, bid for 15 days. Also on record: dose 300 mg, time < 24 hr. To be noted: human, plasma.
A short description of data set [12]: AUC (0 to 24 hrs) in HIV-infected patient at 300 mg, qd co-administered with 100 mg minocycline and 250 mg valporic acid, bid for 15 days. To be noted: human, plasma. Set-up: time < 24 hr, dose 300 mg.
Data set [13] in a line: Cmax in HIV-infected patient at 300 mg, qd. Set-up: dose 300 mg. The note with it: human, in vivo.
A short description of data set [14]: Cmax in HIV-infected patient at 300 mg, qd co-administered with 100 mg minocycline, bid for 15 days. Also on record: dose 300 mg. The note with it: human, in vivo.
A short description of data set [15]: Cmax in HIV-infected patient at 300 mg, qd co-administered with 100 mg minocycline and 250 mg valporic acid, bid for 15 days. Also on record: dose 300 mg. The note with it: human, in vivo.
Data set [16] in a line: Half life in HIV-infected patient at 300 mg, qd. To be noted: human, in vivo.
A short description of data set [17]: Half life in HIV-infected patient at 300 mg, qd co-administered with 100 mg minocycline, bid for 15 days. To be noted: human, in vivo.
Data set [18] can be described thus: Half life in HIV-infected patient at 300 mg, qd co-administered with 100 mg minocycline and 250 mg valporic acid, bid for 15 days. To be noted: human, in vivo.

A word on the AUC: it is concentration integrated over time. For orientation: Cmax means the maximum level reached in the sampled fluid or tissue. What is called half-life is the time needed for the level to fall by half in the phase considered. Take `CC(C)c1nc(CN(C)C(=O)N[C@H](C(=O)N[C@@H](Cc2ccccc2)C[C@H](O)[C@H](Cc2ccccc2)NC(=O)OCc2cncs2)C(C)C)cs1` [RITONAVIR]: the AUC at 24 h came to 9600 ng·h/mL in [1], 8190 ng·h/mL in data set [2] and 7270 ng·h/mL in [3]. For the same compound, the Cmax came to 957 ng/mL in data set [4], 990 ng/mL in data set [5] and 884 ng/mL in [6]. Further, the results for the half-life in [7], in data set [8] and in data set [9] were 5.4 h, 6.64 h and 4.4 h, respectively.

Turning to `COC(=O)N[C@H](C(=O)N[C@@H](Cc1ccccc1)[C@@H](O)CN(Cc1ccc(-c2ccccn2)cc1)NC(=O)[C@@H](NC(=O)OC)C(C)(C)C)C(C)(C)C` [ATAZANAVIR], the results for the AUC at 24 h in [10], in data set [11] and in data set [12] were 53500 ng·h/mL, 33100 ng·h/mL and 33500 ng·h/mL, respectively. Also, the values for the Cmax in data set [13], in data set [14] and in data set [15] were 5130 ng/mL, 3400 ng/mL and 2600 ng/mL, respectively. Besides, the half-life is 11 h in [16], 7.93 h in data set [17] and 10.4 h in data set [18].
